{"source": "patent US20200000750A1", "about": "“Composition for Treating Acute and Chronic Pain” (priority 2018, published 2020)", "origin": "cited, not measured here", "key": {"granulocytopoiesis": {"tested_on": "granulocytopoiesis", "settings": "animals and humans; compared with colchicine"}, "humans": {"tested_on": "humans", "settings": "with the doses mentioned"}, "spermatogenesis": {"tested_on": "spermatogenesis", "settings": "in vivo"}, "acute attacks of gout": {"tested_on": "acute attacks of gout", "settings": "literature; colchiceine at 5 to 8 mg orally"}, "[1]": {"tested_on": "mitosis, spindle formation", "settings": "for antimitotic effect (mitotic or spindle poison): literature; for antagonism of colchicine: literature (Benitez et al. 1954)"}, "[2]": {"settings": "literature"}}, "data": [{"smiles": "CN[C@H]1CCc2cc(OC)c(OC)c(OC)c2-c2ccc(OC)c(=O)cc21", "note": "[Desacetylmethylcolchicine]", "values": [{"measurement": "effect on granulocytopoiesis", "setting": "granulocytopoiesis", "result": "very depressing effect on granulocytopoiesis, much greater than colchicine"}, {"measurement": "alopecia", "setting": "humans", "result": "temporary total alopecia"}, {"measurement": "loss of feathers", "setting": "birds", "result": "loss of feathers"}, {"measurement": "effect on spermatogenesis", "setting": "spermatogenesis", "result": "Impairment of spermatogenesis"}]}, {"smiles": "COc1cc2c(c(OC)c1OC)-c1ccc(=O)c(OC)cc1[C@@H](NC(C)=O)CC2", "note": "[Iso-colchicine]", "values": [{"measurement": "anti-gout effect in acute attacks of gout", "setting": "acute attacks of gout", "result": "little or no anti-gout effects"}, {"measurement": "antimitotic effect (mitotic or spindle poison)", "setting": "[1]", "result": "relatively ineffective as mitotic poisons"}, {"measurement": "toxicity", "setting": "[2]", "result": "relatively nontoxic"}]}, {"smiles": "COc1c(O[C@@H]2O[C@H](CO)[C@@H](O)[C@H](O)[C@H]2O)cc2c(c1OC)-c1ccc(OC)c(=O)cc1[C@@H](NC(C)=O)CC2", "note": "[colchicoside]", "values": [{"measurement": "anti-gout effect in acute attacks of gout", "setting": "acute attacks of gout", "result": "equivocal results"}]}, {"smiles": "COc1cc2c(c(OC)c1OC)-c1ccc(=O)c(O)cc1[C@@H](NC(C)=O)CC2", "note": "[colchiceine]", "values": [{"measurement": "anti-gout effect in acute attacks of gout", "setting": "acute attacks of gout", "result": "no anti-gout effects"}, {"measurement": "antimitotic effect (mitotic or spindle poison)", "setting": "[1]", "result": "very weak antimitotic"}, {"measurement": "diarrheal effect", "setting": "[2]", "result": "very weak"}]}, {"smiles": "O=c1cccccc1O", "note": "[tropolone]", "values": [{"measurement": "antimitotic effect (mitotic or spindle poison)", "setting": "[1]", "result": "not a spindle poison but rather favors the formation of the spindle"}, {"measurement": "antagonism of colchicine", "setting": "[1]", "result": "potent antagonist of colchicine"}]}, {"smiles": "COc1cc2c(c(OC)c1OC)-c1ccc(OC)c(=O)cc1[C@@H](NC(C)=O)CC2", "note": "[Colchicine, colchicine]", "values": [{"measurement": "anti-gout effect in acute attacks of gout", "setting": "acute attacks of gout", "result": "dramatic relief of acute attacks of gout"}]}, {"smiles": "O[C@H]1[C@H](O)[C@@H](O)[C@H](O)[C@@H](O)[C@H]1O", "note": "[mesoinosital]", "values": [{"measurement": "antagonism of colchicine", "setting": "[1]", "result": "potent antagonist of colchicine"}]}, {"smiles": "O=C(CCc1ccc(O)cc1)c1c(O)cc(O)cc1O[C@@H]1O[C@H](CO)[C@@H](O)[C@H](O)[C@H]1O", "note": "[Phlorizine]", "values": [{"measurement": "increase of the antimitotic effect of colchicine (synergist)", "setting": "[1]; literature (H. R. Littre, et al. 1951)", "result": "eight times"}]}]}
